{"source": "patent US8846951B2", "about": "(AbbVie Inc., priority 2009, dated 2014)", "key": {"5HT2B receptors": {"target": "T1, 5HT2B receptors (Homo sapiens, UniProt P41595)", "T1 construct": "expressed in transfected cells; host or cells: CHO-K1 cells", "T1 sequence (P41595 whole entry)": "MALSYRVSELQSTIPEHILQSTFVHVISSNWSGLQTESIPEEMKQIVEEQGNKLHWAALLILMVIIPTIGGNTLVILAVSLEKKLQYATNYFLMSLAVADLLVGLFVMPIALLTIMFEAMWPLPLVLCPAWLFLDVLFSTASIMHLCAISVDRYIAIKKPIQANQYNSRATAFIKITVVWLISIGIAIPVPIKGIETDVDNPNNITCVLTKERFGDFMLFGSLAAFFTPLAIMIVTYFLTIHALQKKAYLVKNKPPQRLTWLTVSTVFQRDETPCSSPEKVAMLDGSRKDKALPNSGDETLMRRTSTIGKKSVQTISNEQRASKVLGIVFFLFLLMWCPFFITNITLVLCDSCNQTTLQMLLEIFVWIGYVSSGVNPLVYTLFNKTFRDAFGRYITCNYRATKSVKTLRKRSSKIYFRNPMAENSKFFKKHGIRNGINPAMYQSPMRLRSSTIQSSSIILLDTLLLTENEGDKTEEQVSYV", "experiment": "Human 5-HT2B functional high throughput screening assay in CHO-K1 cells (calcium flux)", "assay_type": "cell-based", "in_short": "(§1)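 CHO-K1 cells overexpressing human 5-HT2C or 5-HT2B were serum-starved overnight and loaded with Ca4 dye plus 2.5 mM probenecid for 60 min at RT. Calcium flux was read on FLIPR (ex 480/em 530 nm, 25° C) over 3 min after addition of compound, tested from 10 μM in 1:10 steps over 6 points with 0.2% DMSO. EC50 and Emax relative to serotonin came from a 4-parameter logistic fit.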"}, "[1]": {"system": "AMP- or PCP-induced hyperactivity", "experiment": "Psychostimulant (AMP or PCP)-induced hyperlocomotion in mice", "assay_type": "in vivo, mouse", "conditions": "test compound ip 30 min before d-amphetamine 2.0 mg/kg sc; call rule not given here", "description": "(x) Assessment of Effects on Psychostimulant-Induced Hyperlocomotion in Mice\nIn both humans and experimental animals amphetamine (AMP) profoundly affects motor activity, sensorimotor function, sleep, attention, aggressive and sexual behaviors, learning and memory, operant behaviors, appetite and food intake. In addition, amphetamine induces psychotic reactions in normal individuals and exacerbates symptoms of schizophrenia in patients. In experimental animals several distinct behaviors are considered to be correlates of amphetamine psychosis. For example, amphetamine-induced hyperactivity in rodents is believed to model the psychotic symptoms of schizophrenia. Reversal of these behaviors is used to predict potential antipsychotic activity of drugs in pre-clinical studies.\nIn humans, phencyclidine (PCP) is known to produce a syndrome of behavioral effects which have many characteristics in common with schizophrenia. Therefore, antagonism of PCP effects might be evidence for antipsychotic efficacy of a compound.\nMale NMRI mice (5-week old, Janvier, France) or C57BL/6J mice (6-week old, Janvier, France) were group housed and allowed ad-libitum access to food and water. A 12 hour light/dark cycle was imposed with lights-on period between 0530 and 1730 hours. All testing occurred between 700 and 1300 hours. All procedures were approved by Abbott Institutional Animal Care and Use Committee (USA) or Animal Welfare Officer (Germany) and were conducted in accordance with the National Institutes of Health Guide for Care and Use of Laboratory Animals guidelines and applicable national laws in the facilities accredited by the Association for the Assessment and Accreditation of Laboratory Animal Care.\nOn the day of experiment, animals were brought from the animal facility into the experimental room and were allowed to acclimatize for at least 30 minutes. Animals were then placed in the test cages for a habituation period of 60 minutes. The animals were then injected ip with the test compound and returned to the test cage. 30 Minutes later the mice were injected with d-amphetamine (2.0 mg/kg, AMP, Sigma, #A5880, sc) or phencyclidine (2.0 mg/kg, PCP, Sigma, #P3029, sc) Sigma, and returned to the test cages for 90 minutes. Each treatment group consisted of 8-10 animals. The data was acquired by Cage rack Photobeam system (SDI, San Diego Instruments, CA). The analyzed data were: fine movements, ambulations and total movements (fine+ambulations). Data was subjected to one- or two-way distribution-free ANOVA followed by Dunnett's and Tukey's post hoc tests."}, "[2]": {"system": "conditioned avoidance response (CAR) behavior", "experiment": "Conditioned avoidance responding in rats", "assay_type": "in vivo, rat", "conditions": "male Wistar rats", "method": "The fact that antipsychotics have the unique ability to selectively suppress CAR behavior, made the CAR test a useful tool for the screening of new, potentially antipsychotic compounds. […] Animals Male Wistar rats (9-11 weeks old, Charles River, Germany) were pair-housed and allowed ad-libitum access to food and water. A 12-hour light/dark cycle was imposed with lights-on period between 0530 and 1730 hours. All testing occurred between 700 and 1300 hours. All procedures were approved by Abbott Institutional Animal Care and Use Committee (USA) or Animal Welfare Officer (Germany) and were conducted in accordance with the National Institutes of Health Guide for Care and Use of Laboratory Animals guidelines and applicable national laws in the facilities accredited by the Association for the Assessment and Accreditation of Laboratory Animal Care. Methods Wistar rats are exposed to a conditioned stimulus CS (a 2.9-kHz tone of 10 second duration), which is a signal for the animal that it must move into the other chamber in order to avoid an immediately ensuing footshock US (0.5 mA, 10 second, tone continues during shock presentation). Once the shock has begun, the animal can still escape it by moving to the other chamber. Each session is limited to a maximum of 40 trials (intertrial interval 10-90 seconds). The animals generally learn quickly to change chambers upon the conditioned stimulus and thus avoid further shocks. Scored are: • Avoided responses=crossings into other compartment within 10 seconds of tone presentation; • Escaped responses=crossings between 10-20 seconds of tone presentation; • Failures=crossings after cessation of tone-shock presentation or no crossing. […] At the test sessions (=CS-shock pairings), animals are pre-treated with a test drug or vehicle 30 minutes before commencement of the session."}, "5HT2C receptors": {"target": "T2, 5HT2C receptors (Homo sapiens, UniProt P28335)", "T2 sequence (P28335 33-458)": "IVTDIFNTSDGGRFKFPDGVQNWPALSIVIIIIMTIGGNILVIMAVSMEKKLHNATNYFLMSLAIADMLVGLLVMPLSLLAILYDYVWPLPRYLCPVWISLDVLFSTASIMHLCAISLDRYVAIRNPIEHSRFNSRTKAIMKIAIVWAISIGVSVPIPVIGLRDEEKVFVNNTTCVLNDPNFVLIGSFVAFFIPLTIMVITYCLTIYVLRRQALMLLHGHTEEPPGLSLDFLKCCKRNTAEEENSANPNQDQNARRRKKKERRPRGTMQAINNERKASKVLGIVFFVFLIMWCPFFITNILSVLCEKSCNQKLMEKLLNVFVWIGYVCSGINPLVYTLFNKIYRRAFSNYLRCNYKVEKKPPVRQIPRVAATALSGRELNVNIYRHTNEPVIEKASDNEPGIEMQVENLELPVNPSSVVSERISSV", "experiment": "Human 5-HT2C functional high throughput screening assay in CHO-K1 cells (calcium flux)", "assay_type": "cell-based", "parameters": "expressed in transfected cells; host or cells: CHO-K1 cells", "in_short": "as §1"}}, "note": "“Also recorded” adds a separate entry of the source.", "data": [{"smiles": "COc1ccc(-c2ccc3c(c2)C(=O)NC[C@H]2CN(C)C[C@H]32)cc1", "note": "[Example 158, (3aS,10bS)-8-(4-Methoxyphenyl)-2-methyl-1,2,3,3a,4,5-hexahydrobenzo[e]pyrrolo[3,4-c]azepin-6(10bH)-one]", "values": [{"measurement": "EC50", "setting": "5HT2B receptors; 5-HT2B agonist activity, CHO-K1 cells, calcium flux, read-out: EC50", "result": "> 10000", "unit": "nM"}, {"measurement": "Emax", "setting": "5HT2B receptors; 5-HT2B, maximum functional response as percentage relative to the effect of serotonin", "result": "inactive"}, {"measurement": "AMP-induced hyperactivity", "setting": "[1]", "result": "attenuated AMP-induced hyperactivity in mice significantly and in a dose dependent manner; also recorded: attenuating the affect of d-amphetamine (AMP)"}, {"measurement": "conditioned avoidance behavior (avoided responses)", "setting": "[2]; acute, 30 minutes before session", "result": "significantly suppressed conditioned avoidance behavior"}, {"measurement": "number of failures", "setting": "[2]; indicator of sedation or extrapyramidal side effects", "result": "without affecting the number of failures"}, {"measurement": "EC50", "setting": "5HT2C receptors; 5-HT2C agonist activity, CHO-K1 cells, calcium flux, read-out: EC50", "result": 0.6, "unit": "nM"}, {"measurement": "Emax", "setting": "5HT2C receptors; CHO-K1, 5-HT2C, maximum functional response as percentage relative to the effect of serotonin, read-out: Emax", "result": "> 120", "unit": "%"}]}]}
